Earlier results as cited in patent US5268391A, “Propargyl-terminated cycloalkylalkyl-P2-site substituted aryl/alkylsulfonyl-terminated alanine amino-diol compounds for treatment of hypertension” (C. D. Searle & Co., priority 1992, dated 1993).
Where a SMILES comes first, the peptide text is derived from it. [ ]: non-standard residue; d: D form. The star is where a group is joined. Sta = CC(C)C[C@H](N)[C@@H](O)CC(=O)O; Isovaleryl = CC(C)CC(=O)*

Tested on: hog renin
Details: after the injection of hog renin into nephrectomized rats

CC(C)CC(=O)N[C@H](C(=O)N[C@H](C(=O)N[C@@H](CC(C)C)[C@@H](O)CC(=O)N[C@@H](C)C(=O)N[C@@H](CC(C)C)[C@@H](O)CC(=O)O)C(C)C)C(C)C [pepstatin] (Isovaleryl-VV[Sta]A[Sta]-OH)
blood pressure in vivo: reduce blood pressure
